From the supplement of paper PMC8882468

Experiments:
Assay in all cases: CTG-3D luminescence at 96 h relative to day-0 seeding control (ratio to day 0); higher = more growth / less cytotoxicity; PDxO 3D drug screen, 96 h, CTG-3D normalised to day-0 seeding control.
HCI-002 = system: HCI-002 (organoid from a triple-negative breast cancer xenograft)
HCI-010 = system: HCI-010 (organoid from a breast cancer xenograft)
HCI-011.E2 = system: HCI-011.E2 (organoid from an ER-positive breast cancer xenograft)
HCI-015 = system: HCI-015 (organoid from a triple-negative breast cancer xenograft)
HCI-023 = system: HCI-023 (organoid from a triple-negative breast cancer xenograft)

CC[C@H](NC(=O)[C@H](C)NC)C(=O)N1C[C@@H](O)C[C@H]1Cc1c(-c2[nH]c3cc(F)ccc3c2C[C@@H]2C[C@H](O)CN2C(=O)[C@H](CC)NC(=O)[C@H](C)NC)[nH]c2cc(F)ccc12 [birinapant]
CTG-3D luminescence at 96 h
Settings | 12.5 pM | 0.00025 µM | 0.005 µM | 0.1 µM | 1 µM | 10 µM | 100 µM | 625 fM
HCI-002, days in culture: 62 | 3.08 | 2.09 | 2.65 | 1.51 | 1.03 | 0.891 | 0.234 | 2.96
HCI-002, days in culture: 82 | 3 | 2.82 | 1.96 | 1.59 | 0.689 | 0.62 | 0.148 | 3.06
HCI-002, days in culture: 91 | 4.14 | 3.62 | 3.4 | 2.64 | 1.62 | 1.38 | 0.408 | 4.22
HCI-002, days in culture: 191 | 2.67 | 2.28 | 2.58 | 1.73 | 1.31 | 0.959 | 0.188 | 2.59
HCI-002, days in culture: 209 | 2.21 | 2.16 | 1.88 | 0.886 | 0.527 | 0.44 | 0.127 | 2.18
HCI-002, days in culture: 227 | 6.23 | 5.92 | 5.21 | 2.45 | 1.39 | 1.41 | -0.1 | 6.13
HCI-010, days in culture: 52 | 2.04 | 2.47 | 2.12 | 2.26 | 1.6 | 1.52 | 1.05 | 2.18
HCI-010, days in culture: 65 | 1.7 | 1.59 | 1.72 | 1.47 | 1.43 | 1.23 | 0.618 | 1.66
HCI-010, days in culture: 103 | 3.3 | 3.66 | 3.43 | 2.74 | 2.62 | 2.1 | 0.973 | 2.9
HCI-011.E2, days in culture: 74 | 2.25 | 2.3 | 1.91 | 1.82 | 1.85 | 1.48 | 1.22 | 2.46
HCI-015, days in culture: 172 | 2.01 | 1.64 | 0.598 | 0.172 | 0.485 | 0.234 | 0.0277 | 1.3
HCI-015, days in culture: 191 | 0.803 | 0.19 | 0.16 | 0.126 | 0.32 | 0.224 | 0.0253 | 0.41
HCI-015, days in culture: 218 | 1.68 | 0.775 | 0.248 | 0.111 | 0.125 | 0.185 | 0.0267 | 1.8
HCI-023, days in culture: 111 | 1.31 | 0.929 | 0.368 | 0.0512 | 0.0433 | 0.0326 | 0.0111 | 1.35
HCI-023, days in culture: 128 | 1.21 | 1.13 | 0.23 | 0.0897 | 0.044 | 0.0472 | 0.006598 | 1.75

HCI-011.E2
Settings | CTG-3D luminescence at 96 h
12.5 pM | 1.4
0.00025 µM | 1.53
0.005 µM | 1.16
0.1 µM | 1.61
1 µM | 1.34
10 µM | 1.59
100 µM | 0.956
625 fM | 1.72

CCc1c2c(nc3ccc(O)cc13)-c1cc3c(c(=O)n1C2)COC(=O)[C@]3(O)CC [SN-38]
CTG-3D luminescence at 96 h
Settings | 12.5 pM | 0.00025 µM | 0.005 µM | 0.1 µM | 1 µM | 10 µM | 100 µM | 625 fM
HCI-002, days in culture: 62 | 3.11 | 2.44 | 1.01 | 0.53 | 0.117 | 0.0334 | 0.0217 | 3.05
HCI-002, days in culture: 82 | 3.04 | 3.05 | 1.13 | 0.606 | 0.265 | 0.0317 | 0.0208 | 3.43
HCI-002, days in culture: 91 | 3.6 | 2.86 | 0.92 | 0.659 | 0.289 | 0.0365 | 0.0217 | 3.54
HCI-002, days in culture: 191 | 2.67 | 2.76 | 1.31 | 0.721 | 0.356 | 0.0269 | 0.0208 | 2.87
HCI-002, days in culture: 209 | 2.21 | 2.28 | 0.962 | 0.556 | 0.155 | 0.0238 | 0.0205 | 2.49
HCI-002, days in culture: 227 | 5.46 | 4.33 | 1.89 | 1.13 | 0.464 | 0.0608 | 0.038 | 5.49
HCI-010, days in culture: 52 | 2.37 | 2.36 | 0.389 | 0.0916 | 0.0768 | 0.267 | 0.243 | 2.19
HCI-010, days in culture: 65 | 1.69 | 1.69 | 0.379 | 0.115 | 0.0812 | 0.317 | 0.334 | 0.54
HCI-010, days in culture: 103 | 3.57 | 3.27 | 0.516 | 0.116 | 0.145 | 0.599 | 0.576 | 2.96
HCI-011.E2, days in culture: 74 | 2.34 | 1.84 | 2.09 | 1.85 | 1.06 | 0.399 | 0.23 | 2.21
HCI-015, days in culture: 172 | 2.31 | 1.87 | 1.68 | 0.173 | 0.101 | 0.0365 | 0.0336 | 2.79
HCI-015, days in culture: 191 | 1.52 | 1.32 | 0.538 | 0.0896 | 0.0635 | 0.0399 | 0.0305 | 1.5
HCI-015, days in culture: 218 | 2.35 | 1.74 | 1.05 | 0.109 | 0.0491 | 0.0388 | 0.0388 | 1.97
HCI-023, days in culture: 111 | 1.39 | 1.19 | 0.797 | 0.194 | 0.0332 | 0.0191 | 0.0103 | 1.53
HCI-023, days in culture: 128 | 2.09 | 1.68 | 0.754 | 0.391 | 0.0587 | 0.0307 | 0.0252 | 1.9

HCI-011.E2
Settings | CTG-3D luminescence at 96 h
12.5 pM | 1.25
0.00025 µM | 1.54
0.005 µM | 1.4
0.1 µM | 1.48
1 µM | 0.834
10 µM | 0.362
100 µM | 0.218
625 fM | 1.46
